Laboratory results: PMC2138508 (The Journal of Experimental Medicine, 1968)
Ends that are not written are not given here.

Test system: renin
Type: biochemical, hog
Settings: for Vmax per Goldblatt unit/ml: average over the renin concentrations used; for Km relative to the tetradecapeptide (times larger): ratio of Km values

Row | Substance | Vmax per Goldblatt unit/ml (pH 7.5, 37.5C) | other results
1 | Asp Arg Val Tyr Ileu His Pro Phe His Leu Leu Val Tyr Ser [asp^1-arg^2-val^3-tyr^4-ileu^5-his^6-pro^7-phe^8-his^9-leu^10-leu^11-val^12-tyr^13-ser^14] | 10.2 x 10-6 M/min per Goldblatt uni | 
2 | HPFHLLV |  | Average Km (mean of the Km values at the two renin concentrations, pH 7.5, 37.5C): eo; Substrate activity with renin (renin 0.183 Goldblatt units/ml, pH 7.5, 37.5C): no hydrolysis occurred
3 | HPFHLLVY [his^6-pro^7-phe^8-his^9-leu^10-leu^11-val^12-tyr^13] | 7.6 x 10-6 M/min per Goldblatt uni | Km relative to the tetradecapeptide (times larger): ~ 12 times
4 | HPFHLLVYS [his^6-pro^7-phe^8-his^9-leu^10-leu^11-val^12-tyr^13-ser^14] | 11.7 x 10-6 M/min per Goldblatt uni | Km relative to the tetradecapeptide (times larger): ~ 12 times
5 | Ileu His Pro Phe His Leu Leu Val Tyr Ser | 10.9 x 10-6 M/min per Goldblatt uni | 
6 | NRVYVHPFHLLVYS [reference compound] | 9.1 x 10-6 M/min per Goldblatt uni | 
7 | PFHLLVYS | 0.55 x 10-6 M/min per Goldblatt uni | Vm as printed in the Lineweaver-Burk plot of Fig. 4 (value of the figure where it differs from Table I): 0.6 x 10-6 M/min/Goldblatt unit
8 | Tyr Ileu His Pro Phe His Leu Leu Val Tyr Ser | 9.8 x 10-6 M/min per Goldblatt uni | 
9 | Val Tyr Ileu His Pro Phe His Leu Leu Val Tyr Ser | 8.9 x 10-6 M/min per Goldblatt uni | Vmax (renin concentration 0.0195 Goldblatt units/ml (so in the source), pH 7.5, 37.5C): 9.1e-07 M/min
